Assay results from publication PMC6270420, “Antibacterial Activity of Salicylanilide 4-(Trifluoromethyl)benzoates” (Molecules, 2013).
Converted amounts (≈) assume the structure as drawn. Read-outs that look alike come from different tables or passages of the source.

Columns and labels:
[1] = system: Mycobacterium tuberculosis 331/88 (H37Rv); assay: Antimycobacterial MIC micromethod, Šula's medium; format: cell-based
[2] = system: Mycobacterium avium 330/88; assay: Antimycobacterial MIC micromethod; format: cell-based
[3] = system: M. kansasii 6509/96 (clinically isolated strain); assay: Antimycobacterial MIC micromethod; format: cell-based; conditions: Mycobacterium kansasii, read-out: MIC M. kansasii 6509/96
[4] = system: Escherichia coli CCM 4517; assay: Antibacterial microdilution broth method; format: cell-based
Protocol: (§1) The in vitro antibacterial activity was assayed against eight Gram-positive and Gram-negative strains: Staphylococcus aureus CCM 4516/08, methicillin-resistant Staphylococcus aureus H 5996/08 (MRSA), Staphylococcus epidermidis H 6966/08, Enterococcus sp. J 14365/08; Escherichia coli CCM 4517, Klebsiella pneumoniae D 11750/08, ESBL-positive Klebsiella pneumoniae J 14368/08, and Pseudomonas aeruginosa CCM 1961.
(§2) The microdilution broth method modified according to standard M07-A07 in Mueller-Hinton broth (HiMedia Laboratories, Mumbai, India) adjusted to pH 7.4 (±0.2) was used. The tested compounds were dissolved in DMSO to the final concentrations ranging from […]. Benzylpenicillin (penicillin G) was used as a comparative drug. Bacterial inoculum in sterile water was prepared to match 0.5 McFarland scale ([…]). The minimum inhibitory concentrations were assayed as 90% (IC90) or higher reduction of growth when compared to the control. The determination of results was performed visually and spectrophotometrically (at 540 nm). The values of MICs were determined after 24 and 48 h of incubation in the darkness at 35 °C (±0.1) in a humid atmosphere.

[5] = system: methicillin-resistant Staphylococcus aureus H 5996/08 (MRSA); assay: Antibacterial microdilution broth method; format: cell-based; conditions: read-out: MIC/IC90 MRSA H 5996/08
Protocol: as §1, §2

[6] = system: Staphylococcus epidermidis H 6966/08; assay: Antibacterial microdilution broth method; format: cell-based; conditions: read-out: MIC/IC90 S. epidermidis H 6966/08
Protocol: as §1, §2

[7] = system: Enterococcus sp. J 14365/08; assay: Antibacterial microdilution broth method; format: cell-based; conditions: read-out: MIC/IC90 Enterococcus sp. J 14365/08
Protocol: as §1, §2

[8] = system: Staphylococcus aureus CCM 4516/08; assay: Antibacterial microdilution broth method; format: cell-based; conditions: read-out: MIC/IC90 S. aureus CCM 4516/08
Protocol: as §1, §2

[9] = system: Gram-positive cocci including MRSA; assay: Antibacterial microdilution, summary for Gram-positive cocci; format: cell-based; conditions: Staphylococcus aureus, read-out: MICs against Gram-positive cocci
Protocol: as §1, §2

[10] = system: Mycobacterium kansasii 235/80; assay: Antimycobacterial MIC micromethod; format: cell-based; conditions: read-out: MIC M. kansasii 235/80
HepG2 cells = assay: Cytotoxicity evaluation (CellTiter 96 MTS); format: cell-based, human; conditions: Homo sapiens, read-out: IC50 HepG2
Protocol: Seven esters and their parent salicylanilides with the most robust antimicrobial activity were tested for cytotoxicity in the human hepatocellular liver carcinoma cell line HepG2 (passages 21–24; ECACC, Salisbury, UK) using a standard colorimetric method measuring a tetrazolium salt reduction (CellTiter(R) 96 AQueous One Solution Assay, Promega G3580, Madison, WI, USA).
The cells were routinely cultured in Minimum Essentials Eagle Medium (Sigma-Aldrich, Darmstadt, Germany) supplemented with 10% foetal bovine serum (PAA; Biotech, Prague, Czech Republic), 1% of L-glutamine solution (Sigma-Aldrich), and non-essential amino acids solution (Sigma-Aldrich) in a humidified atmosphere containing 5% CO2 at 37 °C. For subculturing, the cells were harvested after trypsin/EDTA (Sigma-Aldrich) treatment at 37 °C. The cells treated with the tested substances were used as experimental groups. Untreated HepG2 cells were used as control groups.
The cells were seeded in density 1 × 10^4 cells per well in a 96-well plate with microscopic control. Next day, the cells were treated with each of the tested substances. […] The most of the tested compounds were prepared in incubation concentrations of 0.01–20 µM in triplicates. 4-(Trifluoromethyl)benzoic acid was applied in the concentrations of 10–4,000 µM in triplicates. The following types of controls were included: determination of 100% viability and 0% viability (the cells treated by 10% DMSO), no cell control and vehiculum controls. These checking samples were prepared in triplicates.
The treated cells were incubated together with controls at 37 °C for 24 h in 5% CO2 atmosphere. After this time reagent from the kit CellTiter 96 AQueous One Solution Cell Proliferation Assay was added. The CellTiter 96 assay is based on the reduction of tetrazolium salt MTS [3-(4,5-dimethylthiazol-2-yl)-5-(3-carboxymethoxyphenyl)-2-(4-sulfophenyl)-2H-tetrazolium] to water-soluble formazan dye by metabolically active cells. The reduction of the reagent is attributed to availability of NADH or NADPH. The decline in levels of these metabolically important compounds in the cell causes that the production of formazan is reduced. The tested plate was incubated for 2 h at 37 °C and 5% CO2 and after this time, the absorbance was recorded at 490 nm using a 96-well plate reader (TECAN, Infinite M200, Grödig, Austria).
The results were expressed as inhibitory concentration which is necessary to inhibit cell viability to 50% from the maximal (control) viability (IC50). A standard toxicological parameter IC50 was calculated in each of the tested substances using GraphPad Prism software (version 5.02; GraphPad Software Inc., San Diego, CA, USA).

[11] = biological target: T1, mycobacterial isocitrate lyase (ICL1, Rv0467) (Mycobacterium tuberculosis, UniProt P9WKK7); assay: Isocitrate lyase inhibition assay (ICL1); format: biochemical, Mycobacterium tuberculosis H37Rv; conditions: 10 μmol/L; read-out: % ICL inhibition at 10 μmol/L (± standard deviation)
T1 construct: His tag (from pET-28b(+)); made in house; host or cells: E. coli BL21(DE3), pET-28b(+) plasmid
T1 sequence (P9WKK7 1-428): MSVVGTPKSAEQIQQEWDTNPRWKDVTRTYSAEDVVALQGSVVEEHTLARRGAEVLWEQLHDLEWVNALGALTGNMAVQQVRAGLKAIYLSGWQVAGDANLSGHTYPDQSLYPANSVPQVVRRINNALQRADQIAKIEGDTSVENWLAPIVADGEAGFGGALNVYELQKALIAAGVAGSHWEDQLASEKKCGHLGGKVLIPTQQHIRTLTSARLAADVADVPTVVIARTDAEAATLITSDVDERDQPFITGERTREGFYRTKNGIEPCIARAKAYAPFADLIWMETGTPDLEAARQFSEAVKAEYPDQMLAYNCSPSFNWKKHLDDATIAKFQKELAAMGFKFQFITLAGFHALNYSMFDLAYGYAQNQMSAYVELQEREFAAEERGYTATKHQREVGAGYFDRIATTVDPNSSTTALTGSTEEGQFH

[12] = system: Mycobacterium tuberculosis, M. avium and M. kansasii; assay: Antimycobacterial MIC, summary over all mycobacterial strains; format: cell-based; conditions: range over all strains and times; read-out: MICs against all mycobacterial strains
Mtb. 234/2005 = assay: microbe, parasite or virus in culture; format: cell-based; conditions: Mycobacterium tuberculosis, read-out: MIC Mtb. 234/2005
Mtb. Praha 131 (XDR-TB) = assay: microbe, parasite or virus in culture; format: cell-based; conditions: Mycobacterium tuberculosis, read-out: MIC Mtb. Praha 131 (XDR-TB)
Mtb. 53/2009 = assay: microbe, parasite or virus in culture; format: cell-based; conditions: Mycobacterium tuberculosis, read-out: MIC Mtb. 53/2009
Mtb. Praha 1 = assay: microbe, parasite or virus in culture; format: cell-based; conditions: Mycobacterium tuberculosis, read-out: MIC Mtb. Praha 1
Mtb. 7357/1988 = assay: microbe, parasite or virus in culture; format: cell-based; conditions: Mycobacterium tuberculosis, read-out: MIC Mtb. 7357/1988
Mtb. 9449/2006 = assay: microbe, parasite or virus in culture; format: cell-based; conditions: Mycobacterium tuberculosis, read-out: MIC Mtb. 9449/2006
[13] = 336 h, 14 d, read-out: MIC Mtb. 331/88
[14] = 504 h, 21 d, read-out: MIC Mtb. 331/88

In the case of `O=C(Oc1cc(Cl)ccc1C(=O)Nc1ccc(C(F)(F)F)cc1)c1ccc(C(F)(F)F)cc1` [1p], the MIC [1, 13] is reported as 2 µM (≈ 0.976 µg/mL), the MIC [1, 14] is reported as 2 µM (≈ 0.976 µg/mL) and the MIC ([2]; 330/88, 336 h, 14 d) is reported as 2 µM (≈ 0.976 µg/mL). It also gave an MIC ([2]; 330/88, 504 h, 21 d) of 8 µM (≈ 3.9 µg/mL), an MIC ([3]; 168 h, 7 d) of 1 µM (≈ 0.488 µg/mL) and an MIC ([3]; 336 h, 14 d) of 4 µM (≈ 1.95 µg/mL). For the same compound, the MIC ([3]; 504 h, 21 d) was 4 µM (≈ 1.95 µg/mL), the MIC ([4]; CCM4517, 24 h, read-out: MIC/IC90 E. coli CCM 4517) was 31.2 µM (≈ 15.2 µg/mL) and the MIC ([4]; CCM4517, 48 h, read-out: MIC/IC90 E. coli CCM 4517) was 250 µM (≈ 122 µg/mL). It also gave an MIC ([4]; CCM4517, time not stated, read-out: MIC E. coli (partial susceptibility)) of 31.2 µM (≈ 15.2 µg/mL), an MIC ([5]; 24 h) of 0.49 µM (≈ 0.239 µg/mL) and an MIC ([5]; 48 h) of 0.98 µM (≈ 0.478 µg/mL). The MIC ([6]; H6966/08, 24 h) was 0.49 µM (≈ 0.239 µg/mL), the MIC ([6]; H6966/08, 48 h) was 0.98 µM (≈ 0.478 µg/mL) and the MIC ([7]; SP.J14365/08, 24 h) was 0.49 µM (≈ 0.239 µg/mL). It also gave an MIC ([7]; SP.J14365/08, 48 h) of 3.9 µM (≈ 1.9 µg/mL), an MIC ([8]; CCM4516, 24 h) of 0.49 µM (≈ 0.239 µg/mL) and an MIC ([8]; CCM4516, 48 h) of 0.98 µM (≈ 0.478 µg/mL). For the same compound, the MIC [9] was under 1 µM, the MIC ([10]; 235/80, 168 h, 7 d) was 2 µM (≈ 0.976 µg/mL) and the MIC ([10]; 235/80, 336 h, 14 d) was 2 µM (≈ 0.976 µg/mL). The MIC ([10]; 235/80, 504 h, 21 d) was 4 µM (≈ 1.95 µg/mL), the IC50 (HepG2 cells; HepG2, 24 h, cytotoxicity) was 1770 nM and the inhibition at 10 µM [11] was 17 ± 2.3%.

With `O=C(Oc1ccc(Br)cc1C(=O)Nc1ccc(C(F)(F)F)cc1)c1ccc(C(F)(F)F)cc1` [1r] the MIC [12] was 1 to 4 µM (≈ 0.532 to 2.13 µg/mL), the MIC (Mtb. 234/2005; 336 h) was 0.5 µM (≈ 0.266 µg/mL) and the MIC (Mtb. 234/2005; 504 h) was 1 µM (≈ 0.532 µg/mL). It also gave an MIC [1, 13] of 1 µM (≈ 0.532 µg/mL), an MIC [1, 14] of 1 µM (≈ 0.532 µg/mL) and an MIC ([1]; time not stated, read-out: MIC against M. tuberculosis) of 1 µM (≈ 0.532 µg/mL). It also gave an MIC ([2]; 330/88, 336 h, 14 d) of 2 µM (≈ 1.06 µg/mL), an MIC ([2]; 330/88, 504 h, 21 d) of 4 µM (≈ 2.13 µg/mL) and an MIC (Mtb. Praha 131 (XDR-TB); 336 h) of 0.5 µM (≈ 0.266 µg/mL). For the same compound, the MIC (Mtb. Praha 131 (XDR-TB); 504 h) was 1 µM (≈ 0.532 µg/mL), the MIC (Mtb. 53/2009; 336 h) was 1 µM (≈ 0.532 µg/mL) and the MIC (Mtb. 53/2009; 504 h) was 2 µM (≈ 1.06 µg/mL). The MIC (Mtb. Praha 1; 336 h) was 0.5 µM (≈ 0.266 µg/mL), the MIC (Mtb. Praha 1; 504 h) was 1 µM (≈ 0.532 µg/mL) and the MIC ([3]; 168 h, 7 d) was 1 µM (≈ 0.532 µg/mL). For the same compound, the MIC ([3]; 336 h, 14 d) was 2 µM (≈ 1.06 µg/mL), the MIC ([3]; 504 h, 21 d) was 4 µM (≈ 2.13 µg/mL) and the MIC ([10]; 235/80, 168 h, 7 d) was 1 µM (≈ 0.532 µg/mL). The MIC ([10]; 235/80, 336 h, 14 d) was 2 µM (≈ 1.06 µg/mL), the MIC ([10]; 235/80, 504 h, 21 d) was 4 µM (≈ 2.13 µg/mL) and the IC50 (HepG2 cells; HepG2, 24 h) was 2030 nM. The MIC (Mtb. 7357/1988; 336 h) was 1 µM (≈ 0.532 µg/mL), the MIC (Mtb. 7357/1988; 504 h) was 1 µM (≈ 0.532 µg/mL) and the MIC (Mtb. 9449/2006; 336 h) was 1 µM (≈ 0.532 µg/mL). For the same compound, the MIC (Mtb. 9449/2006; 504 h) was 1 µM (≈ 0.532 µg/mL) and the inhibition at 10 µM [11] was at least 20%.
